According to patent US7897627B2, “Heteroaryl derivatives as orexin receptor antagonists” (Hoffmann-La Roche Inc., priority 2007, dated 2011):

Biological target: T1, human orexin-2 (hOX2) receptor (Homo sapiens, UniProt O43614)
T1 construct: expressed in transfected cells
T1 sequence (O43614 1-444): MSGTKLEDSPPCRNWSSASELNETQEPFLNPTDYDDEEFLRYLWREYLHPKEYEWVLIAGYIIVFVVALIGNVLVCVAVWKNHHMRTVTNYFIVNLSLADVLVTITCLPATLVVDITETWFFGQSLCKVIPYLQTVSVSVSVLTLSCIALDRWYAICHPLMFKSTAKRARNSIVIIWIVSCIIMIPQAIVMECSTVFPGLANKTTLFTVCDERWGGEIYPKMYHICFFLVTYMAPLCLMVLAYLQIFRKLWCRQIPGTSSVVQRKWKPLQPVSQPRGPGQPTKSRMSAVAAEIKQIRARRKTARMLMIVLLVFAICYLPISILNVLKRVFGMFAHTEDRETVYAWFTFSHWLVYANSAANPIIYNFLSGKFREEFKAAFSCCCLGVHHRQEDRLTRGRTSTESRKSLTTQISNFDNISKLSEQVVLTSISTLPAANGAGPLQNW
Test: Intracellular Ca2+ mobilization assay (FLIPR), CHO(dHFr-) cells expressing hOX2, orexin-A as agonist
Type: cell-based
Details: antagonist Kb=IC50/(1+[A]/EC50); orexin-A at EC80; CHO(dHFr-)-OX2R cells; antagonist applied 25 min before agonist
Experimental: Intracellular Ca^2+ Mobilization Assay
The Chinese Hamster Ovary (dHFr-) mutant cell line stably expressing human orexin-1 (hOX1) or human orexin-2 (hOX2) receptors were maintained in Dulbecco's Modified Eagle Medium (1×) with GlutaMax™1, 4500 mg/L D-Glucose and Sodium Pyruvate (Catalog No. 31966-021, Invitrogen, Carlsbad, Calif.), 5% dialyzed fetal calf serum (Catalog No. 26400-044), 100 μg/ml penicillin and 100 μg/ml streptomycin. The cells were seeded at 5×10^4 cells/well in the poly-D-lysine treated, 96-well, black/clear-bottomed plates (Catalog No. BD356640, BD Biosciences, Palo Alto, Calif.). 24 h later, the cells were loaded for 1 h at 37° C. with 4 μM Flou-4 acetoxymethyl ester (Catalog No. F-14202, Molecular Probes, Eugene, Oreg.) in FLIPR buffer (1×HBSS, 20 mM HEPES, 2.5 mM Probenecid). Hanks' Balanced Salt Solution (HBSS) (10×) (catalog No. 14065-049) and HEPES (1M) (catalog No. 15630-056) were purchased from Invitrogen, Carlsbad, Calif. Probenecid (250 mM) (catalog No. P8761) was from Sigma, Buchs, Switzerland. The cells were washed five times with FLIPR buffer to remove excess dye and intracellular calcium mobilization, [Ca^2−]i were measured using a Fluorometric Imaging Plate Reader (FLIPR-96, Molecular Devices, Menlo Park, Calif.) as described previously (Malherbe et al., Mol. Pharmacol., 64, 823-832, 2003). Orexin A (catalog No. 1455, Toris Cookson Ltd, Bristol, UK) was used as agonist. Orexin A ([…] stock solution in DMSO) was diluted in FLIPR buffer+0.1% BSA. The EC50 and EC80 values of orexin-A were measured daily from standard agonist concentration-response curves in CHO(dHFr-)-OX1R and -OX2R cell lines. All compounds were dissolved in 100% DMSO. Inhibition curves were determined by addition of 11 concentrations (0.0001-10 μM) of inhibitory compounds and using EC80 value of orexin-A as agonist (a concentration which gave 80% of max agonist response, determined daily). The antagonists were applied 25 min (incubation at 37° C.) before the application of the agonist. Responses were measured as peak increase in fluorescence minus basal, normalized to the maximal stimulatory effect induced by EC80 value of orexin-A or orexin-B. Inhibition curves were fitted according to the Hill equation: y=100/(1+(x/IC50)^nH), where nH=slope factor using Excel-fit 4 software (Microsoft).
Kb values were calculated according to the following equation Kb=IC50/(1+[A]/EC50) where A is the concentration of agonist added which is very close to agonist EC80 value, and IC50 and EC50 values were derived from the antagonist inhibition and orexin-A or B agonist curves, respectively.

Structure (SMILES)	Kb
Cc1noc(-c2ccccc2C(=O)N2CC[C@@H](Nc3nc4cc(F)cc(F)c4s3)C2)n1 [Example 135, [(R)-3-(5,7-Difluoro-benzothiazol-2-ylamino)-pyrrolidin-1-yl]-[2-(3-methyl-[1,2,4]oxadiazol-5-yl)-phenyl]-methanone]	0.0394 µM
O=C(c1ccccc1OC(F)(F)C(F)F)N1CC[C@@H](Nc2nc3cccc(F)c3o2)C1 [Example 141, [(R)-3-(7-Fluoro-benzooxazol-2-ylamino)-pyrrolidin-1-yl]-[2-(1,1,2,2-tetrafluoro-ethoxy)-phenyl]-methanone]	0.0138 µM
O=C(c1ccccc1OC(F)(F)F)N1CC[C@@H](Nc2nc3ccc(F)c(F)c3o2)C1 [Example 148, [(R)-3-(6,7-Difluoro-benzooxazol-2-ylamino)-pyrrolidin-1-yl]-(2-trifluoromethoxy-phenyl)-methanone]	0.0386 µM
O=C(c1ccccc1OC(F)(F)C(F)F)N1CC[C@@H](Nc2nc3ccc(F)c(F)c3o2)C1 [Example 149, [(R)-3-(6,7-Difluoro-benzooxazol-2-ylamino)-pyrrolidin-1-yl]-[2-(1,1,2,2-tetrafluoro-ethoxy)-phenyl]-methanone]	0.0072 µM
Cc1ccc(C(F)(F)F)c(C(=O)N2CC[C@@H](Nc3nc4ccc(F)c(F)c4o3)C2)c1 [Example 150, [(R)-3-(6,7-Difluoro-benzooxazol-2-ylamino)-pyrrolidin-1-yl]-(5-methyl-2-trifluoromethyl-phenyl)-methanone]	0.0136 µM
Cc1onc(-c2ccccc2)c1C(=O)N1CC[C@@H](Nc2nc3ccc(F)c(F)c3o2)C1 [Example 151, [(R)-3-(6,7-Difluoro-benzooxazol-2-ylamino)-pyrrolidin-1-yl]-(5-methyl-3-phenyl-isoxazol-4-yl)-methanone]	0.0355 µM
Cc1nc(C(=O)N2CC[C@@H](Nc3nc4ccc(F)c(F)c4o3)C2)c(-c2ccccc2)s1 [Example 155, [(R)-3-(6,7-Difluoro-benzooxazol-2-ylamino)-pyrrolidin-1-yl]-(2-methyl-5-phenyl-thiazol-4-yl)-methanone]	0.0304 µM
O=C(c1ccccc1OC(F)(F)F)N1CC[C@@H](Nc2nc3ccc(F)cc3o2)C1 [Example 157, [(R)-3-(6-Fluoro-benzooxazol-2-ylamino)-pyrrolidin-1-yl]-(2-trifluoromethoxy-phenyl)-methanone]	0.0247 µM
O=C(c1ccccc1OC(F)(F)C(F)F)N1CC[C@@H](Nc2nc3ccc(F)cc3o2)C1 [Example 158, [(R)-3-(6-Fluoro-benzooxazol-2-ylamino)-pyrrolidin-1-yl]-[2-(1,1,2,2-tetrafluoro-ethoxy)-phenyl]-methanone]	0.0039 µM
Cc1ccc(C(F)(F)F)c(C(=O)N2CC[C@@H](Nc3nc4ccc(F)cc4o3)C2)c1 [Example 159, [(R)-3-(6-Fluoro-benzooxazol-2-ylamino)-pyrrolidin-1-yl]-(5-methyl-2-trifluoromethyl-phenyl)-methanone]	0.0205 µM
Cc1nc(C(=O)N2CC[C@@H](Nc3nc4ccc(F)cc4o3)C2)c(-c2ccccc2)s1 [Example 164, [(R)-3-(6-Fluoro-benzooxazol-2-ylamino)-pyrrolidin-1-yl]-(2-methyl-5-phenyl-thiazol-4-yl)-methanone]	0.047 µM
O=C(c1ccccc1C(F)(F)F)N1CC[C@@H](Nc2cnc3cc(F)c(F)cc3n2)C1 [Example 165, [(R)-3-(6,7-Difluoro-quinoxalin-2-ylamino)-pyrrolidin-1-yl]-(2-trifluoromethyl-phenyl)-methanone]	0.0185 µM
O=C(c1ccccc1OC(F)(F)F)N1CC[C@@H](Nc2cnc3cc(F)c(F)cc3n2)C1 [Example 166, [(R)-3-(6,7-Difluoro-quinoxalin-2-ylamino)-pyrrolidin-1-yl]-(2-trifluoromethoxy-phenyl)-methanone]	0.009 µM
O=C(c1ccccc1OC(F)(F)C(F)F)N1CC[C@@H](Nc2cnc3cc(F)c(F)cc3n2)C1 [Example 167, [(R)-3-(6,7-Difluoro-quinoxalin-2-ylamino)-pyrrolidin-1-yl]-[2-(1,1,2,2-tetrafluoro-ethoxy)-phenyl]-methanone]	0.001 µM
Cc1onc(-c2ccccc2)c1C(=O)N1CC[C@@H](Nc2cnc3cc(F)c(F)cc3n2)C1 [Example 168, [(R)-3-(6,7-Difluoro-quinoxalin-2-ylamino)-pyrrolidin-1-yl]-(5-methyl-3-phenyl-isoxazol-4-yl)-methanone]	0.0038 µM
Cc1noc(-c2ccccc2C(=O)N2CC[C@@H](Nc3cnc4cc(F)c(F)cc4n3)C2)n1 [Example 169, [(R)-3-(6,7-Difluoro-quinoxalin-2-ylamino)-pyrrolidin-1-yl]-[2-(3-methyl-[1,2,4]oxadiazol-5-yl)-phenyl]-methanone]	0.0021 µM
Cc1ccc(Cl)c(C(=O)N2CC[C@@H](Nc3cnc4cc(F)c(F)cc4n3)C2)c1 [Example 170, (2-Chloro-5-methyl-phenyl)-[(R)-3-(6,7-difluoro-quinoxalin-2-ylamino)-pyrrolidin-1-yl]-methanone]	0.0129 µM
COc1ccc(C)cc1C(=O)N1CC[C@@H](Nc2cnc3cc(F)c(F)cc3n2)C1 [Example 171, [(R)-3-(6,7-Difluoro-quinoxalin-2-ylamino)-pyrrolidin-1-yl]-(2-methoxy-5-methyl-phenyl)-methanone]	0.0245 µM
Cc1nc(C(=O)N2CC[C@@H](Nc3cnc4cc(F)c(F)cc4n3)C2)c(-c2ccccc2)s1 [Example 172, [(R)-3-(6,7-Difluoro-quinoxalin-2-ylamino)-pyrrolidin-1-yl]-(2-methyl-5-phenyl-thiazol-4-yl)-methanone]	0.0032 µM
O=C(c1ccccc1OC(F)(F)C(F)F)N1CC[C@@H](Nc2cnc3cc(Cl)ccc3n2)C1 [Example 175, [(R)-3-(6-Chloro-quinoxalin-2-ylamino)-pyrrolidin-1-yl]-[2-(1,1,2,2-tetrafluoro-ethoxy)-phenyl]-methanone]	0.0187 µM
Cc1ccc(C(F)(F)F)c(C(=O)N2CC[C@@H](Nc3cnc4cc(Cl)ccc4n3)C2)c1 [Example 176, [(R)-3-(6-Chloro-quinoxalin-2-ylamino)-pyrrolidin-1-yl]-(5-methyl-2-trifluoromethyl-phenyl)-methanone]	0.014 µM
Cc1onc(-c2ccccc2)c1C(=O)N1CC[C@@H](Nc2cnc3cc(Cl)ccc3n2)C1 [Example 177, [(R)-3-(6-Chloro-quinoxalin-2-ylamino)-pyrrolidin-1-yl]-(5-methyl-3-phenyl-isoxazol-4-yl)-methanone]	0.0423 µM
Cc1noc(-c2ccccc2C(=O)N2CC[C@@H](Nc3cnc4cc(Cl)ccc4n3)C2)n1 [Example 178, [(R)-3-(6-Chloro-quinoxalin-2-ylamino)-pyrrolidin-1-yl]-[2-(3-methyl-[1,2,4]oxadiazol-5-yl)-phenyl]-methanone]	0.0244 µM
Cc1nc(C(=O)N2CC[C@@H](Nc3cnc4cc(Cl)ccc4n3)C2)c(-c2ccccc2)s1 [Example 181, [(R)-3-(6-Chloro-quinoxalin-2-ylamino)-pyrrolidin-1-yl]-(2-methyl-5-phenyl-thiazol-4-yl)-methanone]	0.028 µM
O=C(c1ccccc1C(F)(F)F)N1CC[C@@H](Nc2cnc3ccccc3n2)C1 [Example 182, [(R)-3-(Quinoxalin-2-ylamino)-pyrrolidin-1-yl]-(2-trifluoromethyl-phenyl)-methanone]	0.027 µM
O=C(c1ccccc1OC(F)(F)F)N1CC[C@@H](Nc2cnc3ccccc3n2)C1 [Example 183, [(R)-3-(Quinoxalin-2-ylamino)-pyrrolidin-1-yl]-(2-trifluoromethoxy-phenyl)-methanone]	0.02 µM
